Data: US20230159436A1, “APPLICATIONS OF AMIDE ANALOGS OF TRITERPENES IN CURES OF CANCER AND OTHER DISEASES” (Pacific Arrow Limited, priority 2021, published 2023)

How the values were obtained:
HTB-9 = experiment: MTT assay, bladder (HTB-9); format: cell-based
Procedure: (§1) Cells. HTB-9 (bladder), HeLa-S3 (cervix), DU145 (prostate), H460 (lung), MCF-7 (breast), K562 (leukemia), HCT116 (colon), HepG2 (liver), U2OS (bone), T98G (brain), SK-MEL-5 (Skin) and OVCAR 3, ES2 (ovary), Pancreas (Capan), Mouth (KB), Kidney (A498).
(§2) MTT Assay. The procedure for MTT assay followed the method described by Carmichael et al. (1987) with modifications. The cells were seeded into a 96-well plate at for 24 hours before drug-treatment. The cells were then exposed to the drugs for 48, 72, or 96 hours. After the drug-treatment, MTT (0.5 mg/mL) was added to cultures and incubated for an hour. The formazan (product of the reduction of tetrazolium by viable cells) formed and was dissolved with DMSO and the O.D. at 490 nm, and was measured by an ELISA reader. The MTT level of the cells before drug-treatment was also measured (T0). The % cell-growth (% G) is calculated as: % G=(TD−T0/TC−T0)×100(1), where TC or TD represents O.D. readings of control or drug-treated cells.
(§3) When T0>TD, then the cytotoxicity (LC) expressed as % of the control is calculated as: % LC=(TD−T0/T0)×100(2).

DU145 = experiment: MTT assay, prostate (DU145); format: cell-based
Procedure: as §1, §2, §3

SK-Mel-5 = experiment: MTT assay, skin (SK-Mel-5); format: cell-based
Procedure: as §1, §2, §3

A498 = experiment: MTT assay, kidney (A498); format: cell-based
Procedure: as §1, §2, §3

MCF-7 = experiment: MTT assay, breast (MCF-7); format: cell-based
Procedure: as §1, §2, §3

HeLa = experiment: MTT assay, cervix (HeLa); format: cell-based
Procedure: as §1, §2, §3

Swiss3T3 cells = experiment: Cytotoxicity determination in Swiss3T3 normal fibroblast; format: cell-based; conditions: mouse normal fibroblast; preliminary results
Procedure: as §2

[1] = Pharmacokinetic (PK) study: blood from cardiac puncture; format: in vivo, mice; conditions: IP 100 mg/kg, estimated
Procedure: Pharmacokinetic (PK) Study: Blood from Cardiac Puncture • Method: • Drug-Treatment: • Mice: CD-1 female mice (8-10 weeks, 25-30 g) • mice were injected (IP) with Test Drug (10 mg/ml, in 10% DMSO-20% Tween-80 in PBS) at a dose of 100 mg/kg. • At 1 and 2 hours after drug treatments, individual animals were anesthetized with isoflurane. • blood was obtained by cardiac puncture (between the chest-ribs bones). Animals were then euthanized by cervical dislocation. • Plasma Isolation: • Blood (0.6-0.8 ml) was centrifuged (2000 g, 15 minutes). Plasma was collected from the top layer. • 1 volume of plasma was mixed with 3 volume of acetonitrile/0.005% TFA. Mixture was stored in −20° C. for 6 minutes. • Sample was centrifuged (16000 g, 10 minutes). Supernatant was subjected to HPLC analysis. • HPLC Analysis Conditions: • Column: C18 μBondapak • Solvent: 60% acetonitrile/0.005% TFA (Trifluoroacetic acid) • Gradient: isocratic • Flow rate and run time: 1 ml/min for 30 minutes • Detection wavelength: 207 nm • O.D. range: 0.05 full scale • Calculation: • Standard cures of Test Drug is constructed (Area/3000K=1 ug Test Drug) • Area of Test Drug peak from Sample is Recorded • Amount of Test Drug was calculated according to standard cures.

K562 cells [2] = experiment: Inhibition of cell cycling (flow cytometry); format: cell-based, human; conditions: K562, three days, 0-20 ug/ml
Procedure: Experiment 31: Inhibition of Cell Cycling • 1. Method: Cells: Human leukemia cells K562 cultured in RPMI1640 medium. • 2. Drug: compound from present application or Tig-S (1000× stock solution in DMSO). • 3. Start cells concentration: 500000/ml. • 4. Cells were cultured with drug (0-20 ug/ml) for total of three days. • 5. Cells were harvested by centrifugation (136×g, 6 minutes); fixed with 70% ethanol and kept in −20 C before staining. • 6. Staining: Fixed cells were stained with Propidium iodide/RNase A/0.1% Triton X-100 in PBS. • 7. Flow Cytometry Analysis was performed in Baylor Core Facility with a LSRII instrument. • 8. Analysis: Single cell was gated and cell count—FL2-Area histogram were plotted. • 9. Cell distribution in different cell-cycle phases (G0/G1, S, G2/M) was analyzed.

K562 cells [3] = experiment: Apoptosis in K562 cells (Annexin V / propidium iodide); format: cell-based, human
Procedure: Experiment 34: Apoptosis in K562 Cells Induced by Tig-S • 1. Cells: Human leukemia cells K562 cultured in RPMI1640 medium. • 2. Drug: Tig-S (1000× stock solution in DMSO). • 3. Start cells concentration: 500000/ml. • 4. Cells were cultured with drug (0-20 ug/ml) for Two days. • 5. Collect cells from culture (1-4 million) by centrifugation (136×g for 5 min. remove supernatant). • 6. Wash cells with 1 ml of cold PBS, collect cells by centrifugation (136×g, 5 min, remove supernatant). • 7. Re-suspend cells in 200 ul Binding buffer (10 mM HEPES, 140 mM NaCl, 2.5 mM CaCl2, pH 7.4). • 8. Stained cells by adding 10 ul Annexin V (Alexa Fluor 488, Invitrogen cat #A13201), and 2 ul Propidium iodide (1 mg/ml in water) to cell suspension. Mix. • 9. Sit at Room temperature for 15 min. • 10. Wash cells with 1 ml binding buffer. Collect cells by centrifugation. • 11. Re-suspend cells with in 1 ml of binding buffer for analysis by flow cytometry. • 12. Flow Cytometry analysis was performed in Baylor Core Facility with a LSRII instrument. • 13. Analysis: Control cells stained with PI or Annexin V-488 (Annexin V-FITC) alone were served as references. About 50000 cells were analyzed for each sample. • 14. Cell distribution in following groups: live, early apoptosis, late-apoptosis, total apoptosis and dead cells were determined. • 15.

SMILES	IC50 of bladder (HTB-9) (HTB-9)	IC50 of prostate (DU145) (DU145)	IC50 of skin (SK-Mel-5) (SK-Mel-5)	IC50 of kidney (A498) (A498)	IC50 of breast (MCF-7) (MCF-7)	IC50 of cervix (HeLa) (HeLa)	IC50 in SW3T3 cells (Swiss3T3 cells)	half-life [1]	effect on cell cycle (K562 cells [2])	mechanism of cell-death (K562 cells [3])
CC=C(C)C(=O)OCC1(C)C(O)CCC2(C)C1CCC1(C)C2CC=C2C3CC(C)(C)C(O)C(O)C3(COC(=O)C(C)=CC)C(O)CC21C (stereo not drawn) [Tig-R, 24,28-O-Tigloyl-3β,16α,21β,22α,24β,28-hexahydroxyolean-12-ene]	2.5 µg/mL	3.6 µg/mL	5.1 µg/mL	3.5 µg/mL	4.5 µg/mL	5 µg/mL	above 20 ug/ml	about one	–	–
CC=C(C)C(=O)OCC1(C)C(O)CCC2(C)C1CCC1(C)C2CC=C2C3CC(C)(C)C(OC(=O)C(C)=CC)C(O)C3(CO)C(O)CC21C (stereo not shown) [Tig-S]	–	–	–	–	–	–	–	–	arrested in the S-phase	induces cell-death by the apoptosis mechanism
